Test results taken from ChEMBL document CHEMBL4376806, “Antibiotic Adjuvants: Make Antibiotics Great Again!” (2019).
≈ marks a conversion by molar mass, not a printed value.

Columns and labels:
Klebsiella aerogenes [1] = assay: Inhibition of AcrAB-TolC in Enterobacter aerogenes EA3 assessed as potentiation of chloramphenicol-induced antibacterial activity by measuring chloramphenicol MIC at 0.2 mM incubated for 18 hrs (reference value: 512 ug/ml)
Klebsiella aerogenes [2] = assay: Inhibition of AcrAB-TolC in Enterobacter aerogenes EA3 assessed as potentiation of tetracycline-induced antibacterial activity by measuring tetracycline MIC at 0.2 mM incubated for 18 hrs (reference value: 8 ug/ml)
Klebsiella aerogenes [3] = assay: Inhibition of AcrAB-TolC in Enterobacter aerogenes EA3 assessed as potentiation of norfloxacin-induced antibacterial activity by measuring norfloxacin MIC at 0.2 mM incubated for 18 hrs (reference value: 256 ug/ml)
[4] = system: Staphylococcus epidermidis; settings: 01B116
Bacteroides fragilis = settings: 78C004
Haemophilus influenzae = settings: 54A042
[5] = biological target: Beta-lactamase (Staphylococcus aureus) (UniProt P00807); settings: 01A400
Streptococcus pyogenes [6] = assay: Inhibition of beta-lactamase in Streptococcus pyogenes assessed as potentiation of ampicillin-induced antibacterial activity by measuring ampicillin MIC incubated for 24 hrs by CLSI method (Rvb > 200 ug/ml)
Staphylococcus aureus [7] = assay: Inhibition of beta-lactamase in Staphylococcus aureus assessed as potentiation of ampicillin-induced antibacterial activity by measuring ampicillin MIC incubated for 24 hrs by CLSI method (Rvb > 200 ug/ml)
Streptococcus pyogenes [8] = assay: Synergistic antibacterial activity against Streptococcus pyogenes assessed as fractional inhibitory concentration index in presence of ampicillin by checkerboard assay; assay type: functional
Escherichia coli [9] = assay: Inhibition of beta-lactamase in Escherichia coli assessed as potentiation of ampicillin-induced antibacterial activity by measuring ampicillin MIC incubated for 24 hrs by CLSI method (reference value: 100 ug/ml)
Pseudomonas aeruginosa [10] = assay: Inhibition of beta-lactamase in Pseudomonas aeruginosa assessed as potentiation of ampicillin-induced antibacterial activity by measuring ampicillin MIC incubated for 24 hrs by CLSI method (Rvb >200 ug/ml)
Staphylococcus aureus [11] = assay: Synergistic antibacterial activity against Staphylococcus aureus assessed as fractional inhibitory concentration index in presence of ampicillin by checkerboard assay; assay type: functional
Pseudomonas aeruginosa [12] = assay: Synergistic antibacterial activity against Pseudomonas aeruginosa assessed as fractional inhibitory concentration index in presence of ampicillin by checkerboard assay; assay type: functional
Escherichia coli [13] = assay: Potentiation of erythromycin-induced antibacterial activity against Escherichia coli W3110 assessed as erythromycin MIC at 64 ug/ml after 20 hrs by liquid microdilution method (reference value: 64 ug/ml); assay type: functional; settings: K-12 substr. W3110, 20 h
Escherichia coli [14] = assay: Potentiation of novobiocin-induced antibacterial activity against Escherichia coli W3110 assessed as novobiocin MIC at 64 ug/ml after 20 hrs by liquid microdilution method (reference value: 128 ug/ml); assay type: functional; settings: K-12 substr. W3110, 20 h
[15] = biological target: Beta-lactamase CTX-M-27 (Escherichia coli) (UniProt Q840M4); assay: Inhibition of beta-lactamase CTX-M-27 in Escherichia coli (EC113) ST 131 assessed as potentiation of ceftriaxone-induced antibacterial activity by measuring ceftriaxone MIC at 10 ug/ml incubated for 18 hrs by CLSI based broth microtitre dilution method (Rvb >32 ug/ml)
[16] = biological target: Beta-lactamase CTX-M-27 (Escherichia coli) (UniProt Q840M4); assay: Inhibition of beta-lactamase CTX-M-27 in Escherichia coli (EC113) ST 131 assessed as potentiation of cefepime-induced antibacterial activity by measuring cefepime MIC at 10 ug/ml incubated for 18 hrs by CLSI based broth microtitre dilution method (Rvb >32 ug/ml)
[17] = biological target: Beta-lactamase CTX-M-27 (Escherichia coli) (UniProt Q840M4); assay: Inhibition of beta-lactamase CTX-M-27 in Escherichia coli (EC113) ST 131 assessed as potentiation of ceftazidime-induced antibacterial activity by measuring ceftazidime MIC at 10 ug/ml incubated for 18 hrs by CLSI based broth microtitre dilution method (reference value: 8 ug/ml)
[18] = biological target: Beta-lactamase CTX-M-27 (Escherichia coli) (UniProt Q840M4); assay: Inhibition of beta-lactamase CTX-M-27 in Escherichia coli (EC113) ST 131 assessed as potentiation of piperacillin-induced antibacterial activity by measuring piperacillin MIC at 10 ug/ml incubated for 18 hrs by CLSI based broth microtitre dilution method (Rvb >64 ug/ml)
[19] = biological target: Beta-lactamase CTX-M-27 (Escherichia coli) (UniProt Q840M4); assay: Inhibition of beta-lactamase CTX-M-27 in Escherichia coli (EC113) ST 131 assessed as potentiation of ampicillin-induced antibacterial activity by measuring ampicillin MIC at 10 ug/ml incubated for 18 hrs by CLSI based broth microtitre dilution method (Rvb >16 ug/ml)
[20] = biological target: Beta-lactamase CTX-M-27 (Escherichia coli) (UniProt Q840M4); assay: Inhibition of beta-lactamase CTX-M-27 in Escherichia coli (EC113) ST 131 assessed as potentiation of aztreonam-induced antibacterial activity by measuring aztreonam MIC at 10 ug/ml incubated for 18 hrs by CLSI based broth microtitre dilution method (Rvb >16 ug/ml)
[21] = biological target: Beta-lactamase CTX-M-27 (Escherichia coli) (UniProt Q840M4); assay: Inhibition of beta-lactamase CTX-M-27 in Escherichia coli (EC113) ST 131 assessed as potentiation of cefazolin-induced antibacterial activity by measuring cefazolin MIC at 10 ug/ml incubated for 18 hrs by CLSI based broth microtitre dilution method (Rvb >16 ug/ml)

Cc1c([N+](=O)[O-])ccc2c(NCCN3CCCCC3)ccnc12
MIC (Klebsiella aerogenes [1]): 2 µg/mL
MIC (Klebsiella aerogenes [2]): 0.5 µg/mL
MIC (Klebsiella aerogenes [3]): 16 µg/mL

CC1(C)[C@H](C(=O)O)N2C(=O)C[C@H]2S1(=O)=O
MIC [4]: 1.56 µg/mL (≈ 6.69 µM)
MIC (Bacteroides fragilis): 3.12 µg/mL (≈ 13.4 µM)
MIC (Haemophilus influenzae): 1.56 µg/mL (≈ 6.69 µM)
MIC [5]: 1.56 µg/mL (≈ 6.69 µM)

CC[C@H](/C=C/[C@@H](C)[C@H]1CC[C@H]2[C@@H]3CC=C4C[C@@H](O)CC[C@]4(C)[C@H]3CC[C@]12C)C(C)C [STIGMASTEROL]
MIC (Streptococcus pyogenes [6]): 1.56 µg/mL
MIC (Staphylococcus aureus [7]): 3.13 µg/mL
fractional inhibitory concentration index (FICI) (Streptococcus pyogenes [8]): <0.5
MIC (Escherichia coli [9]): 6.25 µg/mL
MIC (Pseudomonas aeruginosa [10]): 6.25 µg/mL
fractional inhibitory concentration index (FICI) (Staphylococcus aureus [11]): <0.5
fractional inhibitory concentration index (FICI) (Pseudomonas aeruginosa [12]): <0.5

Cl.Cl.Cl.Cl.NCCCNCCCCNCCCNC(=O)Cc1cccc2ccccc12
MIC (Escherichia coli [13]): 4 µg/mL
MIC (Escherichia coli [14]): 1 µg/mL

NCc1ccc(C(=O)N[C@H]2Cc3cccc(C(=O)O)c3O[B-]2(O)O)cc1
MIC [15]: < 0.5 µg/mL
MIC [16]: < 4 µg/mL
MIC [17]: < 1 µg/mL
MIC [18]: < 16 µg/mL
MIC [19]: < 8 µg/mL
MIC [20]: < 1 µg/mL
MIC [21]: 4 µg/mL
